Test results published in patent US8299238B2, “Steroidogenesis modified cells and methods for screening for endocrine disrupting chemicals” (University of Saskatchewan, priority 2009, dated 2012).

How the values were obtained:
H295R cells [1] = conditions: H295R cells (parental or unmodified); cited from earlier work
H295R/CYP21A2-KD cells = assay: Chemical exposure, steroid production in H295R/CYP21A2-KD cells; format: cell-based, human
Procedure: (§1) For instrumental detection of steroids, culture medium samples were extracted by ethyl acetate/hexane (v/v, 50/50) followed by LC-MS/MS analysis. […] C-d4 was provided by Cambridge (Andover, Mass., USA), other labelled standards were provided by C/D/N Isotope (Pointe-Claire, Quebec, Canada). Test chemicals (e.g. test substances) were obtained from Sigma. […] For all other hormones, chromatography was performed using a nano-pure water and methanol. Sample extract was separated by a 100 mm×2.1 mm Thermo Scientific Betasil C18 column (5 μm pore size) and then analyzed by a triple quadrapole tandem mass spectrometer (Waters, USA). All data were acquired and processed with Analyst Software, Ver. 1.4.1 (ABI-Sciex).
(§2) Cells were exposed to model chemicals in 24-well cell culture plates (COSTAR, Bucks, UK). One ml of cell suspension was added to each well and cells cultured for 24 to 48 h. Cells were exposed to chemicals dissolved in dimethyl sulfoxide (DMSO; Sigma-Aldrich, St. Louis, Mo.). Forskolin (FOR) was obtained from Sigma Chemical Co. (St. Louis, Mo., USA) and Prochloraz (PRO) was purchased from Aldrich (St. Louis, Mo., USA). The culture medium was collected from each well after 48 h and stored at −80° C. until further measurement.

H295R cells [2] = assay: Chemical exposure, steroid production in unaltered H295R cells; format: cell-based, human; conditions: 48 h
Procedure: as §1, §2

estrogen receptor = conditions: cited from earlier work
[3] = in vivo; cited from earlier work
[4] = cited from earlier work
ER = conditions: cited from earlier work
esterase = conditions: in vitro; cited from earlier work
aromatase (CYP19) = target: T1, aromatase (CYP19) (Homo sapiens, UniProt P11511); conditions: cited from earlier work
T1 sequence (P11511 1-503): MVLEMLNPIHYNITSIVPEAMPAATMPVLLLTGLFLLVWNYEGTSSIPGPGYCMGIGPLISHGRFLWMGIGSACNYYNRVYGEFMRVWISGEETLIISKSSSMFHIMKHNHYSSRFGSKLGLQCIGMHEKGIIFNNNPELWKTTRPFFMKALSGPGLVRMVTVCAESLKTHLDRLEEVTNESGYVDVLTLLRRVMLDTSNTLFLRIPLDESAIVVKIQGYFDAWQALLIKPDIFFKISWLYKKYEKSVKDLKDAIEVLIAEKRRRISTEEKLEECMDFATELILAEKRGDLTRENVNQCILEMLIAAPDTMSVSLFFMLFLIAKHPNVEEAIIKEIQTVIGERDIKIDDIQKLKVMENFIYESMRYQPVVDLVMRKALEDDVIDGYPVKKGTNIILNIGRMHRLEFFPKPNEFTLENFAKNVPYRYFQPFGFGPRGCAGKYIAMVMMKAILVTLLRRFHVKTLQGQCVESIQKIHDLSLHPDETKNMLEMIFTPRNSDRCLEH

aromatase = target: T2, aromatase (Homo sapiens, UniProt P11511); conditions: human ovarian tumor cells (KGN); cited from earlier work
T2 construct: endogenous in cells; host or cells: KGN human ovarian tumor cells
T2 sequence (P11511 1-503): T1 sequence (P11511 1-503)

[5] = system: female rat primary granulosa cells; conditions: cited from earlier work

Molecule | Effect type: estradiol (E2) production (H295R cells [1]) | Effect type: testosterone (T) production (H295R cells [1]) | also measured
Nonoxynol-9 | Negative for effects on testosterone | Negative for effects on testosterone | –
CCCN(CCOc1c(Cl)cc(Cl)cc1Cl)C(=O)n1ccnc1 [Prochloraz] | Strong inhibitor of T and E2 | Strong inhibitor of T and E2 | Effect on progesterone production (H295R/CYP21A2-KD cells): increased; Effect on production of E1 (H295R/CYP21A2-KD cells; H295R/CYP21A2-KD, 48 h): inhibited; Effect on production of E2 (H295R/CYP21A2-KD cells; H295R/CYP21A2-KD, 48 h): inhibited; Effect on production of T (H295R/CYP21A2-KD cells; H295R/CYP21A2-KD, 48 h): inhibited; Effect on production of E1 (H295R cells [2]): inhibited; Effect on production of E2 (H295R cells [2]): inhibited; Effect on production of T (H295R cells [2]): inhibited; Effect on progesterone production (H295R cells [2]; 0.1 μM to 10 μM, dose-dependent): increased
CCC1(c2ccc(N)cc2)CCC(=O)NC1=O (stereo not drawn) [Aminoglutethimide] | Medium to weak inhibitor of T and E2 | Medium to weak inhibitor of T and E2 | –
CCCCOC(=O)c1ccc(O)cc1 [Paraben (Butyl paraben), Butyl paraben] | Weak inducer of E2, and weak | inhibitor of T production. | –
C[C@]12CC[C@H]3[C@@H](CC[C@@]45O[C@@H]4C(O)=C(C#N)C[C@]35C)[C@@H]1CC[C@@H]2O [Trilostane] | Strong inducer of T and E2 | Strong inducer of T and E2 | –
CC(C)(C)NC(=O)[C@H]1CC[C@H]2[C@@H]3CC[C@H]4NC(=O)C=C[C@]4(C)[C@H]3CC[C@]12C [Finasteride] | negative for effects on estradiol. | Weak inhibitor of testosterone; | –
CC(=O)N1CCN(c2ccc(OCC3COC(Cn4ccnc4)(c4ccc(Cl)cc4Cl)O3)cc2)CC1 (stereo not drawn) [Ketoconazole] | Medium to weak inhibitor of E2 | Strong inhibitor of T production; | Effect type: progesterone production (H295R cells [1]): production; Induces progesterone
O=c1c(-c2ccc(O)cc2)coc2cc(O)cc(O)c12 [Genistein] | Medium inducer of E2 and weak | inhibitor of T production. Weak | Estrogen receptor agonism (estrogen receptor): estrogen receptor agonist
CC(C)(c1ccc(O)cc1)c1ccc(O)cc1 [Bisphenol A] | inducer | inhibitor | Uterrotrophic assay result [3]: estradiol. Tested positive for ER; Effect on progesterone (synthesis) in vitro [4]: Some evidence that alters; ER binding in vitro (ER): estradiol. Tested positive for ER
CCCCC(CC)COC(=O)c1ccccc1C(=O)OCC(CC)CCCC (stereo not drawn) [Di (2-ethylhexyl) phthalate (DEHP), Di (2-ethylhexyl) phthalate] | inducer of estradiol in H295R cells. | – | –
CC#C[C@]1(O)CC[C@H]2[C@@H]3CCC4=CC(=O)CCC4=C3[C@@H](c3ccc(N(C)C)cc3)C[C@@]21C [RU-486/mifepristone, mifepristone] | medium to strong inducer of estradiol. | Negative for effects on testosterone; | ER result (mode of action) (estrogen receptor): Negative for ER very
CCSC(=O)N1CCCCCC1 [Molinate] | – | negative/weak inhibitor of T | Inhibition of esterase activity (esterase): vitro, molinate is a poor
COc1nc(NC(C)C)nc(NC(C)C)n1 [Prometon] | Weak inducer of E2 production; | Negative for T. | –
CNC(=O)CSP(=S)(OC)OC [Dimethoate] | increases testosterone and estradiol | increases testosterone and estradiol | Effect on aromatase (CYP19) activity in vitro (aromatase (CYP19)): not affect aromatase activity in vitro;; Effect on progesterone (synthesis) in vitro [4]: Has been shown to decrease
C#C[C@]1(O)CC[C@H]2[C@@H]3CCC4=Cc5oncc5C[C@]4(C)[C@H]3CC[C@@]21C [Danazol] | medium to strong inhibitor of estradiol. | Negative for effects on testosterone; | –
CCNc1nc(Cl)nc(NC(C)C)n1 [Atrazine] | Weak inducer of E2 production. | – | Effect on aromatase (CYP19) activity in vitro (aromatase (CYP19)): Aromatase inducer in vitro
OC(c1ccc(Cl)cc1)(c1cncnc1)c1ccccc1Cl (stereo not drawn) [Fenarimol] | not as unequivocal; weak inhibitor of | – | –
N#Cc1ccc(C(c2ccc(C#N)cc2)n2cncn2)cc1 [Letrozole] | Strong inhibitor of E2 production. | Weak inhibitor of T production. | –
C=CC1(C)OC(=O)N(c2cc(Cl)cc(Cl)c2)C1=O (stereo not drawn) [Vinclozolin] | Weak inducer of and moderate | inhibitor of T production. | –
CCCCNC(=O)n1c(NC(=O)OC)nc2ccccc21 [Benomyl] | inducer or negative for E2 production. | Weak inhibitor of T production; Weak | Effect on aromatase activity (aromatase): Has been shown to induce aromatase; Effect on aromatase (CYP19) activity in vitro (aromatase (CYP19)): Aromatase inducer in vitro
CCCCC(CC)COC(=O)c1ccccc1C(=O)O (stereo not drawn) [monoethylhexyl phthalate (MEHP), monoethylhexyl phthalate] | – | – | Effect on estradiol production [5]: (MEHP) has been shown to suppress
